Reference: US20080194585A1, “Fungicidal Pyrazine Derivatives” (priority 2005, published 2008)
Marks after values point to notes of the source that are not given here.

Assays:
[1] = test system: Rhizoctonia oryzae; assay: Test G: turf brown patch, preventive spray on creeping bent grass seedlings; conditions: 40 ppm (*)
Protocol: (the causal agent of turf brown patch) and incubated in a saturated atmosphere at 27° C. for 24 h, and then moved to a growth chamber at 27° C. for 5 days, after which disease ratings were made.

[2] = test system: Erysiphe graminis f. sp. tritici; assay: Test L: wheat powdery mildew, preventive spray on wheat seedlings; conditions: 40 ppm (*)
[3] = test system: Septoria nodorum; assay: Test H: wheat glum blotch, preventive spray on wheat seedlings; conditions: 40 ppm (*)
Protocol: (the causal agent of wheat glum blotch) and incubated in a saturated atmosphere at 20° C. for 48 h, and then moved to a growth chamber at 22° C. for 5 days, after which disease ratings were made.

[4] = test system: Botrytis cinerea; assay: Test E: tomato botrytis, preventive spray on tomato seedlings; conditions: 40 ppm (*)
[5] = test system: Plasmopara viticola; assay: Test D: grape downy mildew, spray after inoculation of grape seedlings; type: in vivo
From the text: Upon removal, disease ratings were made. […] A dash (-) indicates no test results.

[6] = test system: Septoria tritici; assay: Test J: wheat leaf blotch, preventive spray on wheat seedlings; type: in vivo; conditions: 40 ppm (*)
From the text: A dash (-) indicates no test results.

[7] = test system: Colletotrichum orbiculare; assay: Test B: cucumber Colletotrichum anthracnose, preventive spray on cucumber seedlings; conditions: 40 ppm (*)
[8] = test system: Pythium aphanidermatum; assay: Test A: bluegrass pythium blight, preventive spray on bluegrass seedlings; conditions: 40 ppm (*)
[9] = test system: Puccinia recondita f. sp. tritici; assay: Test K: wheat leaf rust, preventive spray on wheat seedlings; conditions: 40 ppm (*)
[10] = test system: Sclerotinia sclerotiorum; assay: Test C: cucumber white mold, preventive spray on cucumber seedlings; conditions: 40 ppm (*)
[11] = test system: Phytophthora infestans; assay: whole plant or invertebrate; type: in vivo; conditions: 40 ppm (*)

SMILES | Test G disease control rating [1] | Test L disease control rating [2] | Test H disease control rating [3] | Test E disease control rating [4] | Test D disease control rating ([5]; 40 ppm (*)) | Test J disease control rating [6] | Test B disease control rating [7] | Test A disease control rating [8] | Test K disease control rating [9] | Test C disease control rating [10] | Test F disease control rating [11] | Test D disease control rating ([5]; 200 ppm)
CC1CCCCC1n1c(-c2c(F)cccc2F)c(Cl)nc(-n2cccn2)c1=O (stereo not shown) [compound 224] | 92* % | 83* % | 99* % | 100* % | 0* % | 100* % | 66* % | 0* % | 94* % | 0* % | 0* % | –
CC1CCCCC1n1c(-c2c(F)cccc2F)c(Cl)nc(-n2cncn2)c1=O (stereo not shown) [compound 225] | 0* % | 0* % | 73* % | 100* % | 0* % | 100* % | 0* % | 0* % | 73* % | 0* % | 0* % | –
CCCCn1c(-c2c(F)cc(F)cc2F)c(Cl)nc(N2CCC=N2)c1=O [compound 226] | 0* % | 46* % | 95* % | 0* % | 0* % | 100* % | 0* % | 0* % | 82* % | 0* % | 0* % | –
CCCCn1c(-c2c(F)cc(F)cc2F)c(Cl)nc(-n2cccn2)c1=O [compound 227] | 100* % | 99* % | 100* % | 100* % | 96* % | 100* % | 96* % | 0* % | 100* % | 0* % | 0* % | –
CCCCn1c(-c2c(F)cc(F)cc2F)c(Cl)nc(-n2ccc(C)n2)c1=O [compound 228] | 99* % | 99* % | 100* % | 100* % | 77* % | 99* % | 98* % | 0* % | 99* % | 0* % | 0* % | –
CCCCn1c(-c2c(F)cc(F)cc2F)c(Cl)nc(-n2cncn2)c1=O [compound 229] | 16* % | 88* % | 82* % | 95* % | 0* % | 57* % | 0* % | 0* % | 17* % | 0* % | 0* % | –
CCCCn1c(-c2c(F)cc(F)cc2F)c(Cl)nc(-n2nccc2C)c1=O [compound 239] | 0* % | 0* % | 0* % | 0* % | 0* % | 19* % | 0* % | 0* % | 0* % | 0* % | 0* % | –
CCCCn1c(-c2c(F)cc(F)cc2F)c(Cl)nc(-c2ccccn2)c1=O [compound 240] | 0* % | 98* % | 78* % | 100* % | 0* % | 93* % | 9* % | 0* % | 67* % | 0* % | 0* % | –
Cc1ccn(-c2nc(Cl)c(-c3c(F)cccc3F)n(CC(C)C)c2=O)n1 [compound 241] | 85* % | 93* % | 95* % | 100* % | 33* % | 100* % | 92* % | 0* % | 100* % | 0* % | 0* % | –
Cc1ccn(-c2nc(C)c(-c3c(F)cccc3F)n(CC(C)C)c2=O)n1 [compound 243] | 68* % | 98* % | 0* % | 100* % | 0* % | 86* % | 0* % | 0* % | 45* % | 0* % | 0* % | –
CC(C)Cn1c(-c2cccnc2Cl)c(Cl)nc(-n2cccn2)c1=O [compound 244] | 0* % | 0* % | 0* % | 42* % | 31* % | 9* % | 0* % | 0* % | 8* % | 0* % | 0* % | –
COc1cccc(-c2c(Cl)nc(-n3cncn3)c(=O)n2CC(C)C)c1 [compound 245] | 0* % | 0* % | 0* % | 0* % | 0* % | 46* % | 0* % | 0* % | 0* % | 0* % | 0* % | –
COc1cccc(-c2c(Cl)nc(-n3cccn3)c(=O)n2CC(C)C)c1 [compound 246] | 0* % | 78* % | 0* % | 99* % | – | 26* % | 0* % | 0* % | 0* % | 0* % | 0* % | 9%
Cc1cccc(-c2c(Cl)nc(-n3cncn3)c(=O)n2CC(C)C)c1 [compound 247] | 0* % | 0* % | 0* % | 0* % | 0* % | 35* % | 0* % | 0* % | 0* % | 0* % | 0* % | –
